Measurements from article PMC6060383, “Synthesis and pharmacological evaluation of novel isoquinoline N-sulphonylhydrazones designed as ROCK inhibitors” (Journal of Enzyme Inhibition and Medicinal Chemistry, 2018).
pIC50: −log10 of the molar value. In brackets after ≈: the same amount, converted by molar mass. Entries after “also recorded” stand apart in the source; their conditions may differ.

Assays:
[1] = target: T1, ROCK1 human recombinant enzyme (Homo sapiens, UniProt Q13464); assay: ROCK1 inhibition assay (Eurofins-Cerep, phosphorylation of Ulight-RRRSLLE substrate); type: biochemical
T1 construct: purchased EUROFINS-CEREP France (contract assay, study numbers 100033685 and 100040481); host or cells: Sf9 insect cells
T1 sequence (Q13464 whole entry): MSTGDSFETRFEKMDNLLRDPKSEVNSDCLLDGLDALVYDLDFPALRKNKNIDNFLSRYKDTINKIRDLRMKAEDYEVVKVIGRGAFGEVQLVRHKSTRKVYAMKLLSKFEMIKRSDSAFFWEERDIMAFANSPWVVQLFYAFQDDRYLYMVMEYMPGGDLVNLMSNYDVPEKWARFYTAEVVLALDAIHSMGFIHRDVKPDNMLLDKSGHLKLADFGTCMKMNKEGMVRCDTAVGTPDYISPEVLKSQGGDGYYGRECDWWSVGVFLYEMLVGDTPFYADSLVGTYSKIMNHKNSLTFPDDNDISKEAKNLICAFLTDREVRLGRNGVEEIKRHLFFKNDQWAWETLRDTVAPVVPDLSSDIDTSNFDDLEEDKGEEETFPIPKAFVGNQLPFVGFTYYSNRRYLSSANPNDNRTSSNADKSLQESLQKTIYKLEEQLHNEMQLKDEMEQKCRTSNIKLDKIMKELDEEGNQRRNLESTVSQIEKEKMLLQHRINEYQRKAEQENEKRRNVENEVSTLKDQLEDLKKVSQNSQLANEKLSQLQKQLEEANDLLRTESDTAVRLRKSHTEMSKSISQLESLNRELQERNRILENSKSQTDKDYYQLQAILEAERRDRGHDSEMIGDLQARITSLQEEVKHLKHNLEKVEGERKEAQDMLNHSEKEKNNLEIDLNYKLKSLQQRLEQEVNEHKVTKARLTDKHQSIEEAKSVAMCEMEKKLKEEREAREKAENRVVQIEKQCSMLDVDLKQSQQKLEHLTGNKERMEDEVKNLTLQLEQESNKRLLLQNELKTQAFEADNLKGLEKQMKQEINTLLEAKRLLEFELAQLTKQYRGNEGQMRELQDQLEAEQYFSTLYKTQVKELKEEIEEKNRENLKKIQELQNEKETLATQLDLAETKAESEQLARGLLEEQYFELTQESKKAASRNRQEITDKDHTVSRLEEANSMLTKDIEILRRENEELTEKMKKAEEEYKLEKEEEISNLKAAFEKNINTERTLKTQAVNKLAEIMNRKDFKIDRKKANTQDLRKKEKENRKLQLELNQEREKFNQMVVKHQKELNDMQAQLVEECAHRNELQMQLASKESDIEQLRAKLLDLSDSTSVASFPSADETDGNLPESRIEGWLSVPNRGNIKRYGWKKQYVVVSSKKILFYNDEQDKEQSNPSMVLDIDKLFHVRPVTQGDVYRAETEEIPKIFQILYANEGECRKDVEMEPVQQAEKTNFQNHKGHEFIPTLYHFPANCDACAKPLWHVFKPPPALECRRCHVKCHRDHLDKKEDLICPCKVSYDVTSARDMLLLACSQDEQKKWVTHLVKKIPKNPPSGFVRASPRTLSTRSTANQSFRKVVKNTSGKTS
Procedure: (§1) The analysis was performed using software developed at Cerep (Hill software) and GraphPad Prism® 5.0 (GraphPad Software, Inc., San Diego, CA) and validated through comparison with results generated using the SigmaPlot 4.0 software.
(§2) Prior to this assay, we evaluated the solubility of these compounds in water (buffer pH 7.4) to ensure that the inhibition percentages were not influenced by the precipitation of the compounds under test conditions.

[2] = target: T2, ROCK2 human recombinant enzyme (Homo sapiens, UniProt O75116); assay: ROCK2 inhibition assay (Eurofins-Cerep, phosphorylation of Ulight-RRRSLLE substrate); type: biochemical
T2 construct: purchased EUROFINS-CEREP France (contract assay, study numbers 100033685 and 100040481); host or cells: Sf21 insect cells
T2 sequence (O75116 1-543 limits assumed): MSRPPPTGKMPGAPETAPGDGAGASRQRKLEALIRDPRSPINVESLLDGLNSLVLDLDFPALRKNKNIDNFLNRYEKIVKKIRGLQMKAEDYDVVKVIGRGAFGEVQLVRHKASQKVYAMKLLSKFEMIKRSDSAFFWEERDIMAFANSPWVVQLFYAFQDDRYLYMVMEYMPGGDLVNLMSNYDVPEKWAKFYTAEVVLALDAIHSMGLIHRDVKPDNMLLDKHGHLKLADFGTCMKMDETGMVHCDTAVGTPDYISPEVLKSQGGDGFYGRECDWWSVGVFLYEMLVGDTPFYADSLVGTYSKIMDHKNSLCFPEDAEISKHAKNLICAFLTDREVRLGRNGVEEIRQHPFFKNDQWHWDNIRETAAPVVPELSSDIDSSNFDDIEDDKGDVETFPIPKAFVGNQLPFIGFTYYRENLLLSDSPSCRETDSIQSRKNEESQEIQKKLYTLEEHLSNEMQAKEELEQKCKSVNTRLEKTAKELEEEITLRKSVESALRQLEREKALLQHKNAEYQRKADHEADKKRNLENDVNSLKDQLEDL
Procedure: as §1, §2

[3] = Water solubility assay (UV spectrophotometric method); type: physicochemical; details: aqueous buffer, thermodynamic from solid, water (buffer pH 7.4), stirring 4 h at 37 °C
Procedure: The solubility assay was performed considering the absorptivity of compounds under ultraviolet spectroscopy as described by Schneider et al.[20] Assay wavelength was determined through λmax characteristic of each compound. Saturated aqueous solutions were prepared (0.8–1.0 mg/mL) and kept under stirring for 4 h at 37 °C. The supernatant was filtered in […] filters and transferred to a quartz cuvette (10 mm) for spectra acquisition. Solubility was determined by linear regression used as Excel graph plots, solutions were prepared by dilutions of the original solution in methanol. Data were collected in triplicate and the mean values were used to create the graph plots. The correlation coefficient (R^2) values were between 0.9982 and 1.
The N-sulphonylhydrazone derivatives 5a–h were evaluated for their ability to inhibit both ROCK1 and ROCK2 isoforms by measuring the phosphorylation of the Ulight-RRRSLLE substrate using human recombinant enzymes expressed in Sf9[23] and Sf21^24 cells, respectively. Prior to this assay, we evaluated the solubility of these compounds in water (buffer pH 7.4) to ensure that the inhibition percentages were not influenced by the precipitation of the compounds under test conditions. The enzymatic assay was initially performed at a screening concentration of 3 μM, which is capable of guaranteeing the solubility of most of the compounds, and the obtained results are shown in Table 2.

[4] = target: T3, IKK-β (Homo sapiens, UniProt O14920); assay: IKK-β inhibition screening; type: biochemical; details: screening concentration of 10 μM; data not shown
T3 sequence (O14920 1-756): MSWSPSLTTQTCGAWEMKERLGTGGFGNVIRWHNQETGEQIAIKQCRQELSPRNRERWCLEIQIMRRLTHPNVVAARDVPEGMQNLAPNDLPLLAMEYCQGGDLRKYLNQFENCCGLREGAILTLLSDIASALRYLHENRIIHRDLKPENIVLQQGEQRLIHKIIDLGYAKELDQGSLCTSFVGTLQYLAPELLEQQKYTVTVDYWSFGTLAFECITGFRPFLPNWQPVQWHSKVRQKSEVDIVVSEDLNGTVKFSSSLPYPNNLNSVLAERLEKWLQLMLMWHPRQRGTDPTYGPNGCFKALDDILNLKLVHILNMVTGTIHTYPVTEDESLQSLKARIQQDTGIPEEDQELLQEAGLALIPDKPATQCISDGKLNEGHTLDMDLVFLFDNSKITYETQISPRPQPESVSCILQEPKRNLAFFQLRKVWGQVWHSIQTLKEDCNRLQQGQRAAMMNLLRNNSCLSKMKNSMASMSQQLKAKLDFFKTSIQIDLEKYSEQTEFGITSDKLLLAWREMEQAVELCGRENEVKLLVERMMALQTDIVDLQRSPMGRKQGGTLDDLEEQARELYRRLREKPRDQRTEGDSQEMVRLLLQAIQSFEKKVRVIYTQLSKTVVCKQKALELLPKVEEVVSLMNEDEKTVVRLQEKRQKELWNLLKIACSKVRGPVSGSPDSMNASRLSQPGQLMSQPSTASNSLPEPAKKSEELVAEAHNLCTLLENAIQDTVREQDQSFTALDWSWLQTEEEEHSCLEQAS
Description: Furthermore, considering that 2 (LASSBio-1524) was used in the structural design of this new family of ROCK inhibitors we also investigated the ability of 5b (LASSBio-2020) and 11 (LASSBio-2065) to inhibit IKK-β.

[5] = test system: MDA-MB 231 cells; assay: Cell-based scratch assay (cell migration); design: species or system human; details: 10 or 30 μM, 24 h
Procedure: The human mammary gland/breast epithelial cell line MDA-MB 231 was obtained from the American Type Culture Collection (ATCC® HTB-26™) and this use was approved by the Ethics Committee for Animal Care and Use in Scientific Research from the Federal University of Rio de Janeiro. Cells were routinely grown in RPMI medium containing 10% foetal bovine serum (FBS), 1% L-glutamine and 1% penicillin-streptomycin, in a humidified 5% CO2 atmosphere at 37 °C. Cells were cultured up to 70–100% confluence and then some cultures were treated with the compounds at different concentrations for 24 or 48 h. All cell culture reagents were purchased from Invitrogen (São Paulo, Brazil).
Cells were cultured in 24-well culture plates for 24 h up to 90–100% confluence. Scratched wound lines were created with the help of a 200 μl micropipette tip. […] Images were acquired with an Olympus DP71 digital camera (Olympus, Japan) and the wound area was quantified using Fiji software (based on ImageJ, http://imageJ.nih.gov/ij/) from three different experiments.
The functions of Rho-kinase include the regulation of cellular contraction, motility, morphology, polarity, division, and gene expression. Therefore, we performed a cell-based scratch assay followed by the quantification of the wounded area to analyse whether compounds 5b (LASSBio-2020) and 11 (LASSBio-2065) altered cell migration. […]

[6] = screening concentration 3 μM, average of two experiments

pIC50 ([1]; human recombinant ROCK1, five-point assay, 1 to 50 µM, mean of two experiments): 4.89
inhibition at 3 µM [1, 6]: 29%
pIC50 ([2]; human recombinant ROCK2, five-point assay, 1 to 50 µM, mean of two experiments): 5.15
inhibition at 3 µM [2, 6]: 24.2%
solubility at 4 h [3]: 54 µM (≈ 16.8 µg/mL)
melting point: 172 °C
Compound: O=S(=O)(N/N=C/c1ccccc1)c1cccc2cnccc12 [Compound 5b, (E)-N′-benzylideneisoquinoline-5-sulphonohydrazide]
IKK-β inhibition (result in words) [4]: none of these N-sulphonylhydrazone derivatives was able to inhibit IKK-β
effect on cell migration (result in words) [5]: inhibited MDA-MB 231 cell migration; also recorded: effective at inhibiting cell migration
